In general, pIC50 refers to −log10 of the IC50, conventionally taken in molar units.

The values below come from patent US5556862A, “Pharmaceutical compositions containing isoquinoline derivatives” (Nippon Zoki Pharmaceutical Co., Ltd., priority 1993, dated 1996).

The assay deals with PDEIV. Nature of the assay: Inhibitory activity towards phosphodiesterase type IV isozyme ([3H] cAMP substrate, in the presence of 10 μM cilostazol). The class given is biochemical. As to conditions: type IV isozyme from porcine artery, 30° C.

pIC50: −log10 of the molar value. Counter-ions that a name gives are not always drawn.

For `CCOc1ccc(CC2=NCCc3cc(OCC)c(OCC)cc32)cc1OCC` [Compound 6, 1-(3',4'-Diethoxybenzyl)-6,7-diethoxy-3,4-dihydroisoquinolinium-theophylline-7-acetate monohydrate], the pIC50 (pH 7.5, monohydrate) was 4.76.

As to `CCOc1ccc(CC2=NCCc3cc(OCC)c(OCC)cc32)cc1OCC` [Compound 4, 1-(3',4'-Diethoxybenzyl)-6,7-diethoxy-3,4-dihydroisoquinoline hydrochloride], the pIC50 (pH 7.5, hydrochloride) was 5.09.

With `CCCCOc1cc(CC2CNC(=O)N2)ccc1OC` (stereo not drawn) [Ro20-1724, reference compound], where the note is “pH 7.5”, the pIC50 was 4.58.
